From publication PMC11247627, “Evaluation of Antibacterial Functionalized Dihydropyrimidine Photoaffinity Probes Toward Mechanism of Action Studies” (ACS Medicinal Chemistry Letters, 2024)
Values after ≈ are worked out from the molar mass of the structure shown. Where two headings read alike, the source gives them in different places.

Columns and labels:
Format in all cases: cell-based
[1] = system: Staphylococcus aureus ATCC 12600; assay: Antibacterial broth microdilution assay (MIC), methicillin-sensitive S. aureus ATCC 12600; conditions: for MIC: Staphylococcus aureus, read-out: MIC ATCC 12600
Description: (§1) These 24 DHP analogues were then screened for inhibition of Staphylococcus aureus growth using microdilution assays. Growth inhibition was examined in methicillin-sensitive S. aureus (ATCC 12600) and two strains of MRSA (ATCC 33591 and ATCC 43300). Antibiotic controls were included in the screen, including carbenicillin, erythromycin, gentamycin, trimethoprim, and vancomycin, and minimum inhibitory concentrations (MICs) were determined for each compound, which were defined as the concentration required to inhibit >95% of bacterial growth (Table 1).
(§2) Antibacterial Microdilution Assay (MIC Determination)
(§3) 1240 The MIC determination assays were performed in a BSL-2 laboratory with appropriate security and biosafety measures. The MICs were determined using a broth microdilution assay closely following the guidelines of the Clinical and Laboratories Standards Institute (CLSI). MICs were determined in duplicate for two biological replicates using 2-fold serial dilutions of test compounds or commercial antibiotics in cation-adjusted Mueller-Hinton broth. The central 60 wells of 96-well plates were 1245 prepared with the compound of interest at the indicated concentration, where 2 µL of the compound in DMSO were added prior to the addition of the culture. Overnight cultures of the different Staphylococcus aureus strains were diluted to provide an initial inoculum of approximately 5 X 10 5 CFU/mL that was delivered to each well in 198 µL of culture (final DMSO concentration of ~1%). Initial inoculum concentrations were verified by plating to count CFU/mL. Each plate was equipped with 1250 experimental controls for full growth (6 wells) and full growth inhibition (6 wells), and all control wells were in the presence of 1% DMSO. The outer 36 wells were filled with 200 µL of culture each to prevent growth effects on the interior 60 wells. The plates were incubated at 37 °C for 18 hours, at which time they were removed from the incubator and were allowed to equilibrate to room temperature for 30 minutes. Absorbance of each well at 600 nm was then read using a microplate reader to 1255 determine the MIC, and visual confirmation of growth inhibition was also performed. If variation was seen in the experimental values, the highest value of two independent trials was listed.

[2] = system: Staphylococcus aureus ATCC 43300 (MRSA); assay: Antibacterial broth microdilution assay (MIC), MRSA ATCC 43300; conditions: 18 h; for MIC: Staphylococcus aureus, read-out: MIC ATCC 43300
Description: as §1, §2, §3

[3] = system: Staphylococcus aureus ATCC 33591 (MRSA); assay: Antibacterial broth microdilution assay (MIC), MRSA ATCC 33591; conditions: 18 h; for MIC: Staphylococcus aureus, read-out: MIC ATCC 33591
Description: as §1, §2, §3

Staphylococcus aureus = assay: S. aureus growth inhibition (all three strains or strain not specified); conditions: for antibacterial potency of alkynyl esters compared to their ethyl variants: MIC comparison, Table 3; for MIC: Staphylococcus aureus, read-out: concentration inhibiting S. aureus growth (MIC)
Description: as §1, §2, §3

[4] = ATCC12600, amount inhibiting >95% of growth (A600), 18 h, suffix 'I' = partial growth inhibition at the value, >95% at higher concentrations
[5] = amount inhibiting >95% of growth (A600), suffix 'I' = partial growth inhibition at the value, >95% at higher concentrations
[6] = all three S. aureus strains or strain not specified

## CCOC(=O)C1=C(c2cccc(C)c2)NC(N)=NC1c1ccc(CC(C)C)cc1 (centres unmarked) [7j]
[1]; [4]
  MIC: 4 µg/mL (≈ 10.2 µM)
[2]; [5]
  MIC: 4 µg/mL (≈ 10.2 µM)
[3]; [5]
  MIC: 4 µg/mL (≈ 10.2 µM)

## CCOC(=O)C1=C(c2ccccc2)NC(N)=NC1c1ccc(C2(C(F)(F)F)N=N2)cc1 (centres unmarked) [26a]
[1]; [4]
  MIC: 4 µg/mL (≈ 9.32 µM)
[2]; [5]
  MIC: 4 µg/mL (≈ 9.32 µM)

## CCOC(=O)C1=C(c2ccc(C3(C(F)(F)F)N=N3)cc2)NC(N)=NC1c1cc(Cl)cc(Cl)c1 (centres unmarked) [26b]
[1]; [4]
  MIC: 4 µg/mL (≈ 8.03 µM)
[2]; [5]
  MIC: 4 µg/mL (≈ 8.03 µM)

## CCOC(=O)C1=C(c2ccc(C3(C(F)(F)F)N=N3)cc2)NC(N)=NC1c1ccc(CC(C)C)cc1 (centres unmarked) [26c]
[1]; [4]
  MIC: 2 µg/mL (≈ 4.12 µM)
[2]; [5]
  MIC: 2 µg/mL (≈ 4.12 µM)

## C#CCCOC(=O)C1=C(c2ccccc2)NC(N)=NC1c1cc(Cl)cc(Cl)c1 (centres unmarked) [26d]
[1]; [4]
  MIC: 16 µg/mL (≈ 38.6 µM)
Staphylococcus aureus
  antibacterial potency of alkynyl esters compared to their ethyl variants: 2-fold decreased potency
[2]; [5]
  MIC: 16 µg/mL (≈ 38.6 µM)

## C#CCCOC(=O)C1=C(c2ccccc2)NC(N)=NC1c1ccc(C2(C(F)(F)F)N=N2)cc1 (centres unmarked) [26e]
[1]; [4]
  MIC: 8 µg/mL (≈ 17.6 µM)
Staphylococcus aureus
  antibacterial potency of alkynyl esters compared to their ethyl variants: 2-fold decreased potency
[2]; [5]
  MIC: 8 µg/mL (≈ 17.6 µM)

## C#CCCCOC(=O)C1=C(c2ccccc2)NC(N)=NC1c1cc(Cl)cc(Cl)c1 (centres unmarked) [26f]
[1]; [4]
  MIC: 4 µg/mL (≈ 9.34 µM)
Staphylococcus aureus
  antibacterial potency of alkynyl esters compared to their ethyl variants: 2-fold increased potency
[2]; [5]
  MIC: 4 µg/mL (≈ 9.34 µM)

## C#CCCCOC(=O)C1=C(c2ccccc2)NC(N)=NC1c1ccc(C2(C(F)(F)F)N=N2)cc1 (centres unmarked) [26g]
[1]; [4]
  MIC: 4 µg/mL (≈ 8.56 µM)
Staphylococcus aureus
  antibacterial potency of alkynyl esters compared to their ethyl variants: equal potency
[2]; [5]
  MIC: 4 µg/mL (≈ 8.56 µM)

## C#CCCCOC(=O)C1=C(c2ccc(C3(C(F)(F)F)N=N3)cc2)NC(N)=NC1c1ccc(CC(C)C)cc1 (centres unmarked) [26h]
[1]; [4]
  MIC: 2 µg/mL (≈ 3.82 µM)
Staphylococcus aureus
  antibacterial potency of alkynyl esters compared to their ethyl variants: equal potency
Staphylococcus aureus; [6]
  MIC: 2 µg/mL (≈ 3.82 µM)
[2]; [5]
  MIC: 2 µg/mL (≈ 3.82 µM)

## CC1(C)S[C@@H]2[C@H](NC(=O)C(C(=O)O)c3ccccc3)C(=O)N2[C@H]1C(=O)O (some centres unmarked) [carbenicillin, reference compound]
[1]; [4]
  MIC: 2 µg/mL (≈ 5.29 µM)
[2]; [5]
  MIC: 32 µg/mL (≈ 84.6 µM)
[3]; [5]
  MIC: 128 µg/mL (≈ 338 µM)

## CCOC(=O)CC(=O)c1ccc(C2(C(F)(F)F)N=N2)cc1 [compound 11]
[1]; [4]
  MIC: > 64 µg/mL
Staphylococcus aureus; [6]
  MIC: > 64 µg/mL
[2]; [5]
  MIC: > 64 µg/mL

## O=Cc1ccc(C2(C(F)(F)F)N=N2)cc1 [compound 25]
[1]; [4]
  MIC: > 64 µg/mL
Staphylococcus aureus; [6]
  MIC: > 64 µg/mL
[2]; [5]
  MIC: > 64 µg/mL

## CC[C@H]1OC(=O)[C@H](C)[C@@H](O[C@H]2C[C@@](C)(OC)[C@@H](O)[C@H](C)O2)[C@H](C)[C@@H](O[C@@H]2O[C@H](C)C[C@H](N(C)C)[C@H]2O)[C@](C)(O)C[C@@H](C)C(=O)[C@H](C)[C@@H](O)[C@]1(C)O [erythromycin, reference compound]
[1]; [4]
  MIC: 0.5 µg/mL (≈ 0.681 µM)
[2]; [5]
  MIC: > 512 µg/mL
[3]; [5]
  MIC: > 512 µg/mL

## CN[C@H](CC(C)C)C(=O)N[C@H]1C(=O)N[C@@H](CC(N)=O)C(=O)N[C@H]2C(=O)N[C@H]3C(=O)N[C@H](C(=O)N[C@H](C(=O)O)c4cc(O)cc(O)c4-c4cc3ccc4O)[C@H](O)c3ccc(c(Cl)c3)Oc3cc2cc(c3O[C@@H]2O[C@H](CO)[C@@H](O)[C@H](O)[C@H]2O[C@H]2C[C@](C)(N)[C@H](O)[C@H](C)O2)Oc2ccc(cc2Cl)[C@H]1O [vancomycin, reference compound]
[1]; ATCC12600, 18 h
  MIC: 2 µg/mL (≈ 1.38 µM)
Staphylococcus aureus
  MIC: 2 µg/mL (≈ 1.38 µM)
[2]
  MIC: 2 µg/mL (≈ 1.38 µM)
[3]
  MIC: 2 µg/mL (≈ 1.38 µM)

## gentamycin [reference compound]
[1]; amount inhibiting >95% of growth (A600), 18 h, suffix 'I' = partial growth inhibition at the value, >95% at higher concentrations
  MIC ATCC 12600: 4 µg/mL
[2]; [5]
  MIC ATCC 43300: 128 µg/mL
[3]; [5]
  MIC ATCC 33591: 4 µg/mL
